Data reported in PMC4102417 (PLoS Neglected Tropical Diseases, 2014).
pEC50: −log10 of the molar value. Where a name gives a salt, the structure may show the parent alone. Read-outs that look alike come from different tables or passages of the source.

Columns and labels:
[1] = tested on: T. cruzi (Tulahuen strain); assay: microbe, parasite or virus in culture; format: cell-based, Trypanosoma cruzi; settings: for activity at 10 µM: read-out: T. cruzi % growth @ 10 uM (Amastigotes); for pEC50: read-out: T. cruzi EC50
Outline: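 Tulahuen parasites expressing beta-galactosidase were added (1×10^4 trypomastigotes/well) to 3T3 fibroblasts plated 24 h earlier, 4 h before compound (10 µM final).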

3T3 fibroblast cells = assay: cells; format: cell-based, murine; settings: for activity at 10 µM: Mus musculus, NIH3T3, 72 h, read-out: Mammalian (3T3) cell % growth at 10 uM
[2] = Trypanosoma cruzi, TULAHUEN, Fibroblast, 120 h, 10 uM, Table S2
[3] = Trypanosoma cruzi, TULAHUEN, Fibroblast, Table S2, amastigotes
[4] = Trypanosoma cruzi, TULAHUEN, Fibroblast

Row | Structure (SMILES) | activity at 10 µM [1, 2] [%] | activity at 10 µM (3T3 fibroblast cells; 10 uM, Table S2) [%] | other results
1 | O=C(CCCN1CCC2(CC1)C(=O)NCN2c1ccccc1)c1ccc(F)cc1 [SPIPERONE, 8-[4-(4-fluorophenyl)-4-oxobutyl]-1-phenyl-1,3,8-triazaspiro[4.5]decan-4-one] | 17.1 | 94.7 | 
2 | COc1ccc(-c2cc(=O)c3ccccc3o2)cc1 [4'-METHOXYFLAVONE, 2-(4-methoxyphenyl)-4H-chromen-4-one] | 18.7 | 100 | 
3 | Cc1[nH]c2ccccc2c1CN(C)C [2-METHYL GRAMINE] | 20.8 | 86.9 | 
4 | C=CCN(C)CCCCCCOc1ccc(C(=O)c2ccc(Br)cc2)c(F)c1 [Ro 48-8071] |  |  | pEC50 ([1]; intracellular amastigotes, 5 days, separate assays separated by semicolons): 6.39; CC50 (3T3 fibroblast cells; 3T3 fibroblasts, 72 hours, separate assays separated by semicolons, read-out: Mammalian cell CC50): 7.4 µM
5 | O=c1cc(-c2cc(O)c(O)c(O)c2)oc2cc(O)cc(O)c12 [HIERACIN, 5,7-dihydroxy-2-(3,4,5-trihydroxyphenyl)-4H-chromen-4-one] | 6.5 | 100 | 
6 | O=C1C=C2C=CC3CC2(O1)C1CCCCN31 (stereo not drawn) [SECURININE, 14-oxa-7-azatetracyclo[6.6.1.0^{1,11}.0^{2,7}]pentadeca-9,11-dien-13-one] | 1.4 | 75 | 
7 | CCC1(O)C(=O)OCc2c1cc1n(c2=O)Cc2cc3ccccc3nc2-1 (stereo not drawn) [CAMPTOTHECIN, 19-ethyl-19-hydroxy-17-oxa-3,13-diazapentacyclo[11.8.0.0^{2,11}.0^{4,9}.0^{15,20}]henicosa-1(21),2,4(9),5,7,10,15(20)-heptaene-14,18-dione] | 3.9 |  | activity at 10 µM (3T3 fibroblast cells): 94.3%
8 | COC(=O)C[C@H]1C(C)(C)[C@@H](O)[C@@H]2CC3=C4CC(O)O[C@@H](c5ccoc5)[C@]4(C)CCC3[C@@]1(C)C2=O (stereo partly drawn) [3,16-DIDEOXYMEXICANOLIDE-3beta-DIOL] | 22.1 | 99.8 | 
9 | O=c1cc(-c2ccccc2)oc2c(O)c(O)ccc12 [7,8-DIHYDROXYFLAVONE, 7,8-dihydroxy-2-phenyl-4H-chromen-4-one] | 1.3 | 72.6 | 
10 | CC1COC2=C1C(=O)C(=O)c1c2ccc2c1CCCC2(C)C (stereo not drawn) [CRYPTOTANSHINONE, 6,6,14-trimethyl-12-oxatetracyclo[8.7.0.0^{2,7}.0^{11,15}]heptadeca-1(10),2(7),8,11(15)-tetraene-16,17-dione] | 4.5 | 87 | 
11 | CN1CCC(=C2c3ccccc3Sc3ccccc32)CC1 [PIMETHIXENE, 1-methyl-4-(9H-thioxanthen-9-ylidene)piperidine] | 3.9 | 98.5 | 
12 | CC1(C)C=CC(=O)C2(C)C1CC(=O)C1(C)C2CCC2(C)C(c3ccoc3)OC(=O)C3OC321 (stereo not drawn) [DEACETOXY-7-OXISOGEDUNIN, 7-(furan-3-yl)-1,8,12,16,16-pentamethyl-3,6-dioxapentacyclo[9.8.0.0^{2,4}.0^{2,8}.0^{12,17}]nonadec-14-ene-5,13,19-trione] | 3.9 | 100 | 
13 | COC(=O)C1C2CC3c4[nH]c5cc(OC)ccc5c4CCN3CC2CC(OC(=O)c2cc(OC)c(OC)c(OC)c2)C1OC (stereo not drawn) [RESERPINE, methyl 6,18-dimethoxy-17-[(3,4,5-trimethoxyphenyl)carbonyloxy]-3,13-diazapentacyclo[11.8.0.0^{2,10}.0^{4,9}.0^{15,20}]henicosa-2(10),4(9),5,7-tetraene-19-carboxylate] | 4 | 100 | pEC50 [1, 3]: 5.22; pEC50 [1, 4]: > 5.00
14 | CC1(C)C(=O)C=CC2(C)C1CC(O)C1(C)C2CCC2(C)C(c3ccoc3)OC(=O)C3OC321 (stereo not drawn) [DEACETYLGEDUNIN, 7-(furan-3-yl)-19-hydroxy-1,8,12,16,16-pentamethyl-3,6-dioxapentacyclo[9.8.0.0^{2,4}.0^{2,8}.0^{12,17}]nonadec-13-ene-5,15-dione] | 4.4 | 76 | 
15 | COc1c(CC(=O)c2cc3c(cc2O)OC(C)(C)C(O)C3)ccc2c1C=CC(C)(C)O2 (stereo not drawn) [DIHYDROMUNDULETONE] | 4.4 | 81.3 | 
16 | O=c1c(O)c(-c2ccccc2)oc2ccccc12 [3-HYDROXYFLAVONE, 3-hydroxy-2-phenyl-4H-chromen-4-one] | 4.1 | 85.7 | 
17 | COc1cc(NC(C)CCCN)c2ncccc2c1 (stereo not drawn) [Primaquine, N-(5-aminopentan-2-yl)-6-methoxyquinolin-8-amine; bis(phosphoric acid)] | 4.7 | 91.1 | pEC50 ([1]; Trypanosoma cruzi, TULAHUEN, Fibroblast, 120 h, intracellular amastigotes, 5 days, separate assays separated by semicolons): 6.52

Row | Structure (SMILES) | activity at 10 µM [1, 2] [%] | activity at 10 µM (3T3 fibroblast cells; 10 uM, Table S2) [%] | other results
18 | COc1ccc2c(c1)OC[C@@H](Cc1ccc(OC)c(OC)c1)[C@@H]2O [3-DESHYDRO[…] ETHER] | 24.9 | 80.4 | 
19 | COc1cc2nc(N3CCN(C(=O)c4ccco4)CC3)nc(N)c2cc1OC [PRAZOSIN HYDROCHLORIDE, 2-{4-[(furan-2-yl)carbonyl]piperazin-1-yl}-6,7-dimethoxyquinazolin-4-amine hydrochloride] | 1.8 | 70.7 | pEC50 [1, 3]: 5.08; pEC50 [1, 4]: > 5.00
20 | CC(=O)OC1CCC2(C)C(CC(OC(C)=O)C3(C)C4=CC(=O)OC(c5ccoc5)C4(C)CCC23)C1(C)C (stereo not drawn) [3-DEOXO-3beta-ACETOXYDEOXYDIHYDROGEDUNIN, 18-(acetyloxy)-6-(furan-3-yl)-1,7,11,15,15-pentamethyl-4-oxo-5-oxatetracyclo[8.8.0.0^{2,7}.0^{11,16}]octadec-2-en-14-yl acetate] | 7.8 | 100 | 
21 | CN(C)CCCN1c2ccccc2Sc2ccccc21 [PROMAZINE, dimethyl[3-(10H-phenothiazin-10-yl)propyl]amine hydrochloride] | 9.2 | 98.7 | 
22 | CCCCCC(=O)O[C@]1(C(C)=O)CC[C@H]2C3CCC4=CC(=O)CCC4(C)[C@H]3CCC21C (stereo partly drawn) [HYDROXYPROGESTERONE CAPROATE, (1S,11S,14R)-14-acetyl-2,15-dimethyl-5-oxotetracyclo[8.7.0.0^{2,7}.0^{11,15}]heptadec-6-en-14-yl hexanoate] | 1.8 | 100 | pEC50 [1, 3]: 5.00
23 | CC(=O)OC[C@H]1O[C@@H](Oc2cc(OC(C)=O)c3c(=O)cc(-c4ccc(OC(C)=O)cc4)oc3c2)[C@H](OC(C)=O)[C@@H](OC(C)=O)[C@@H]1OC(C)=O [COSMOSIIN HEXAACETATE] | 12.9 | 100 | 
24 | CC(=O)OC1CC2C(C)(C)C(O)CCC2(C)C2CCC3(C)C(c4ccoc4)OC(=O)C4OC43C12C (stereo not drawn) [beta-DIHYDROGEDUNOL, 7-(furan-3-yl)-15-hydroxy-1,8,12,16,16-pentamethyl-5-oxo-3,6-dioxapentacyclo[9.8.0.0^{2,4}.0^{2,8}.0^{12,17}]nonadecan-19-yl acetate] | 21.8 | 76.3 | 
25 | Cc1nc2ccccn2c(=O)c1CCN1CCC(C(=O)c2ccc(F)cc2)CC1 [PIRENPERONE, 3-(2-{4-[(4-fluorophenyl)carbonyl]piperidin-1-yl}ethyl)-2-methyl-4H-pyrido[1,2-a]pyrimidin-4-one] | 23.1 | 91.6 | 
26 | CCCCCCCC/C=C/CCCCCCCCOP(=O)([O-])OCC[N+](C)(C)C [ELAIDYLPHOSPHOCHOLINE, (9E)-octadec-9-en-1-yl [2-(trimethylazaniumyl)ethyl] phosphate] | 5 | 93.7 | 
27 | CNc1ccccc1C(=O)N1CCc2c([nH]c3ccccc23)C1=O [RHETSININE, 2-{[2-(methylamino)phenyl]carbonyl}-1H,2H,3H,4H,9H-pyrido[3,4-b]indol-1-one] | 5.9 | 75.7 | 
28 | CCOc1ccc(C(=O)c2ccc(OC)c(O)c2O)cc1 [2,3-DIHYDROXY-4-METHOXY-4'-ETHOXYBENZOPHENONE] | 9.1 | 95.8 | 
29 | CCOc1ccc(Cc2nccc3cc(OCC)c(OCC)cc23)cc1OCC [ETHAVERINE, 1-[(3,4-diethoxyphenyl)methyl]-6,7-diethoxyisoquinoline] | 3.7 | 95.1 | 
30 | CC12CCC3C(CCC4CC(O)CCC43C)C1CCC2=O (stereo not drawn) [EPIANDROSTERONE, 5-hydroxy-2,15-dimethyltetracyclo[8.7.0.0^{2,7}.0^{11,15}]heptadecan-14-one] |  |  | activity at 10 µM ([1]; Trypanosoma cruzi, TULAHUEN, Fibroblast, 120 h): 18.8%; activity at 10 µM (3T3 fibroblast cells): 100%
31 | C=C1C(=O)OC2CC1C(OC(C)=O)CC(C)=CCCC(C)=CCCC2(C)O (stereo not drawn) [CRASSIN ACETATE, 12-hydroxy-4,8,12-trimethyl-16-methylidene-15-oxo-14-oxabicyclo[11.3.1]heptadeca-4,8-dien-2-yl acetate] |  |  | activity at 10 µM ([1]; Trypanosoma cruzi, TULAHUEN, Fibroblast, 120 h, 10 uM, Table S1): 0.2%; activity at 10 µM (3T3 fibroblast cells; 10 uM, Table S1): 2.5%
32 | CC(C)CCC[C@@H](C)[C@H]1CC[C@H]2[C@@H]3C(=O)C=C4C[C@@H](O)CC[C@]4(C)[C@H]3CC[C@]12C [7-OXOCHOLESTEROL, (1S,2R,5S,10S,11S,14R,15R)-5-hydroxy-2,15-dimethyl-14-[(2R)-6-methylheptan-2-yl]tetracyclo[8.7.0.0^{2,7}.0^{11,15}]heptadec-7-en-9-one] | 23.4 | 68.5 | 
33 | CN1CCN(CCCN2c3ccccc3Sc3ccc(C(F)(F)F)cc32)CC1 [TRIFLUOPERAZINE, 10-[3-(4-methylpiperazin-1-yl)propyl]-2-(trifluoromethyl)-10H-phenothiazine] | 20.4 | 94.7 | 
